This note sets out measurements from patent US8633200B2, “Inhibitors of human immunodeficiency virus replication” (priority 2010, dated 2014).

Structures can show the parent of a compound that is named as a salt.

The first assay deals with recombinant NL-Rluc virus (NL4-3 with Renilla Luciferase gene) in MT-2 cells. Nature of the assay: Inhibition of HIV replication (NL-Rluc luciferase reporter virus, MT-2 cells). Type of assay: cell-based, human immunodeficiency virus (HIV). Particulars: NL43, 120 h, read-out: Activity. For orientation: Reporter assays use an easily measured gene product as a stand-in for the process of interest.
For `Cc1nc2cc(-c3ccccc3)nn2c(-c2ccc(C(C)C)cc2)c1C(OC(C)(C)C)C(=O)O` (centres unmarked) [Example 57], the EC50 was more than 1 µM.
In the case of `CSc1ccc(-c2c(C(OC(C)(C)C)C(=O)O)c(C)nc3cc(-c4ccccc4)nn23)cc1` (centres unmarked) [Example 58], the EC50 was more than 1 µM.
In the case of `Cc1cc(-c2c(C(OC(C)(C)C)C(=O)O)c(C)nc3cc(-c4ccccc4)nn23)ccc1F` (centres unmarked) [Example 59], the EC50 is more than 1 µM.
On the same count and under the same terms, next, `Cc1cc(F)ccc1-c1c(C(OC(C)(C)C)C(=O)O)c(C)nc2cc(-c3ccccc3)nn12` (centres unmarked) [Example 60]: more than 1 µM; `Cc1ccc(-c2c(C(OC(C)(C)C)C(=O)O)c(C)nc3cc(-c4ccccc4)nn23)cc1F` (centres unmarked) [Example 61]: more than 1 µM.
On the same count and under the same terms, next, `Cc1ccc(F)c(-c2c(C(OC(C)(C)C)C(=O)O)c(C)nc3cc(-c4ccccc4)nn23)c1` (centres unmarked) [Example 62]: more than 1 µM.
For `COc1ccc(-c2c(C(OC(C)(C)C)C(=O)O)c(C)nc3cc(-c4ccccc4)nn23)c(F)c1` (centres unmarked) [Example 63], the EC50 was more than 1 µM.
Still for that read-out and setting: in the case of `Cc1nc2cc(-c3ccccc3)nn2c(-c2cc3ccccc3o2)c1C(OC(C)(C)C)C(=O)O` (centres unmarked) [Example 64] it was more than 1 µM.
On the same count and under the same terms, in the case of `Cc1nc2cc(-c3ccccc3)nn2c(-c2ccc3c4c(cccc24)CC3)c1C(OC(C)(C)C)C(=O)O` (centres unmarked) [Example 65] it was more than 1 µM.
Same read-out and setting: in the case of `Cc1nc2cc(-c3ccccc3)nn2c(-c2ccc(C(C)(C)C)cc2)c1C(OC(C)(C)C)C(=O)O` (centres unmarked) [Example 66] it was more than 1 µM.
As to `Cc1nc2cc(-c3ccccc3)nn2c(-c2cc3ccccc3s2)c1C(OC(C)(C)C)C(=O)O` (centres unmarked) [Example 67], the EC50 was more than 1 µM.
For `Cc1nc2cc(-c3ccccc3)nn2c(-c2csc3ccccc23)c1C(OC(C)(C)C)C(=O)O` (centres unmarked) [Example 68], the EC50 is more than 1 µM.
Same read-out and setting: next, `Cc1nc2cc(-c3ccccc3)nn2c(-c2cccc3cccnc23)c1C(OC(C)(C)C)C(=O)O` (centres unmarked) [Example 69]: more than 1 µM; `Cc1nc2cc(-c3ccccc3)nn2c(-c2ccc3[nH]ccc3c2)c1C(OC(C)(C)C)C(=O)O` (centres unmarked) [Example 70]: more than 1 µM.
Same read-out and setting: next, `Cc1nc2cc(-c3ccccc3)nn2c(-c2cccc3ncccc23)c1C(OC(C)(C)C)C(=O)O` (centres unmarked) [Example 71]: more than 1 µM; `Cc1nc2cc(-c3ccccc3)nn2c(-c2cccc3[nH]ccc23)c1C(OC(C)(C)C)C(=O)O` (centres unmarked) [Example 72]: more than 1 µM; `Cc1nc2cc(-c3ccccc3)nn2c(-c2cccc3cnccc23)c1C(OC(C)(C)C)C(=O)O` (centres unmarked) [Example 73]: more than 1 µM.
Consider `Cc1nc2cc(-c3ccccc3)nn2c(-c2ccc3nccnc3c2)c1C(OC(C)(C)C)C(=O)O` (centres unmarked) [Example 74], for which the EC50 is more than 1 µM.
Same read-out and setting: next, `Cc1nc2cc(-c3ccccc3)nn2c(-c2ccc(N(C)C)cc2)c1C(OC(C)(C)C)C(=O)O` (centres unmarked) [Example 75]: more than 1 µM; `Cc1nc2cc(-c3ccccc3)nn2c(-c2ccc3cn[nH]c3c2)c1C(OC(C)(C)C)C(=O)O` (centres unmarked) [Example 76]: more than 1 µM; `Cc1ccc(-c2c(C(OC(C)(C)C)C(=O)O)c(C)nc3cc(-c4ccccc4)nn23)cn1` (centres unmarked) [Example 77]: more than 1 µM.
Take `Cc1nc2cc(-c3ccccc3)nn2c(-c2cnc3[nH]ccc3c2)c1C(OC(C)(C)C)C(=O)O` (centres unmarked) [Example 78]: the EC50 is more than 1 µM.
On the same count and under the same terms, next, `Cc1nc2cc(-c3ccccc3)nn2c(-c2ccc3ccncc3c2)c1C(OC(C)(C)C)C(=O)O` (centres unmarked) [Example 79]: more than 1 µM.
The same measure, in the same setting: next, `Cc1nc2cc(-c3ccccc3)nn2c(-c2cccc3cn[nH]c23)c1C(OC(C)(C)C)C(=O)O` (centres unmarked) [Example 80]: more than 1 µM; `Cc1nc2cc(-c3ccccc3)nn2c(-c2ccc(Cl)cc2Cl)c1C(OC(C)(C)C)C(=O)O` (centres unmarked) [Example 81]: more than 1 µM; `Cc1nc2cc(-c3ccccc3)nn2c(-c2ccc(F)c(Cl)c2)c1C(OC(C)(C)C)C(=O)O` (centres unmarked) [Example 82]: more than 1 µM.
The same measure, in the same setting: next, `Cc1nc2cc(-c3ccccc3)nn2c(-c2ccc(F)c(F)c2)c1C(OC(C)(C)C)C(=O)O` (centres unmarked) [Example 83]: more than 1 µM.
For `Cc1nc2cc(-c3ccccc3)nn2c(-c2ccc(Cl)c(Cl)c2)c1C(OC(C)(C)C)C(=O)O` (centres unmarked) [Example 84], the EC50 was more than 1 µM.
Take `Cc1nc2cc(-c3ccccc3)nn2c(-c2cccc(Cl)c2Cl)c1C(OC(C)(C)C)C(=O)O` (centres unmarked) [Example 85]: the EC50 is more than 1 µM.
For the compound `Cc1nc2cc(-c3ccccc3)nn2c(-c2ccc(Cl)c(F)c2)c1C(OC(C)(C)C)C(=O)O` (centres unmarked) [Example 86], the EC50 is more than 1 µM.
Same read-out and setting: next, `Cc1nc2cc(-c3ccccc3)nn2c(-c2ccc(C)c3ccccc23)c1C(OC(C)(C)C)C(=O)O` (centres unmarked) [Example 87]: more than 1 µM.
The same measure, in the same setting: in the case of `COc1ccc(-c2c(C(OC(C)(C)C)C(=O)O)c(C)nc3cc(-c4ccccc4)nn23)cc1C` (centres unmarked) [Example 88] it was more than 1 µM.
Same read-out and setting: next, `Cc1nc2cc(-c3ccccc3)nn2c(-c2ccc3c(c2)OCCCO3)c1C(OC(C)(C)C)C(=O)O` (centres unmarked) [Example 89]: more than 1 µM; `Cc1nc2cc(-c3ccccc3)nn2c(-c2ccc(F)cc2Cl)c1C(OC(C)(C)C)C(=O)O` (centres unmarked) [Example 90]: more than 1 µM; `Cc1ccc(-c2c(C(OC(C)(C)C)C(=O)O)c(C)nc3cc(-c4ccccc4)nn23)c(C)c1` (centres unmarked) [Example 91]: more than 1 µM.
`COc1ccc(-c2cc3nc(C)c(C(OC(C)(C)C)C(=O)O)c(-c4cc(F)c5c(c4C)CCCO5)n3n2)cc1` (centres unmarked) [Example 92, 2-tert-Butoxy-2-(7-(8-fluoro-5-methylchroman-6-yl)-2-(4-methoxyphenyl)-5-methylpyrazolo[1,5-a]pyrimidin-6-yl)acetic acid, TFA salt]: the EC50 fell in the range of 0.1 to 1 µM.
Same read-out and setting: next, `Cc1nc2cc(-c3cccc(OCc4ccccc4)c3)nn2c(-c2cc(F)c3c(c2C)CCCO3)c1C(OC(C)(C)C)C(=O)O` (centres unmarked) [Example 93, 2-(2-(3-(Benzyloxy)phenyl)-7-(8-fluoro-5-methylchroman-6-yl)-5-methylpyrazolo[1,5-a]pyrimidin-6-yl)-2-tert-butoxyacetic acid, TFA salt]: less than 0.1 µM.
Still for that read-out and setting: in the case of `Cc1nc2cc(-c3cccc(OCc4ccccc4)c3)nn2c(-c2cc(F)c3c(c2C)CCCO3)c1[C@H](OC(C)(C)C)C(=O)O` [Example 94, (2S)-2-(2-(3-(Benzyloxy)phenyl)-7-(8-fluoro-5-methylchroman-6-yl)-5-methyl-pyrazolo[1,5-a]pyrimidin-6-yl)-2-tert-butoxyacetic acid] it was less than 0.1 µM; in that of `Cc1nc2cc(-c3ccc(OCc4ccccc4)cc3)nn2c(-c2cc(F)c3c(c2C)CCCO3)c1C(OC(C)(C)C)C(=O)O` (centres unmarked) [Example 95, 2-(2-(4-(Benzyloxy)phenyl)-7-(8-fluoro-5-methylchroman-6-yl)-5-methylpyrazolo[1,5-a]pyrimidin-6-yl)-2-tert-butoxyacetic acid, TFA salt], less than 0.1 µM.
On the same count and under the same terms, next, `Cc1nc2cc(-c3ccc(Cl)cc3)nn2c(-c2cc(F)c3c(c2C)CCCO3)c1C(OC(C)(C)C)C(=O)O` (centres unmarked) [Example 96, 2-tert-Butoxy-2-(2-(4-chlorophenyl)-7-(8-fluoro-5-methylchroman-6-yl)-5-methylpyrazolo[1,5-a]pyrimidin-6-yl)acetic acid, TFA salt]: 0.1 to 1 µM; `Cc1nc2cc(-c3cccc(Oc4ccccc4)c3)nn2c(-c2cc(F)c3c(c2C)CCCO3)c1C(OC(C)(C)C)C(=O)O` (centres unmarked) [Example 97, 2-tert-Butoxy-2-(7-(8-fluoro-5-methylchroman-6-yl)-5-methyl-2-(3-phenoxyphenyl)pyrazolo[1,5-a]pyrimidin-6-yl)acetic acid, TFA salt]: less than 0.1 µM; `Cc1ccccc1-c1cc2nc(C)c(C(OC(C)(C)C)C(=O)O)c(-c3cc(F)c4c(c3C)CCCO4)n2n1` (centres unmarked) [Example 98, 2-tert-Butoxy-2-(7-(8-fluoro-5-methylchroman-6-yl)-5-methyl-2-o-tolylpyrazolo[1,5-a]pyrimidin-6-yl)acetic acid, TFA salt]: more than 1 µM.
As to `COc1cccc(-c2cc3nc(C)c(C(OC(C)(C)C)C(=O)O)c(-c4cc(F)c5c(c4C)CCCO5)n3n2)c1` (centres unmarked) [Example 99, 2-tert-Butoxy-2-(7-(8-fluoro-5-methylchroman-6-yl)-2-(3-methoxyphenyl)-5-methylpyrazolo[1,5-a]pyrimidin-6-yl)acetic acid], the EC50 lay within 0.1 to 1 µM.
The same measure, in the same setting: next, `CCc1ccc(-c2cc3nc(C)c(C(OC(C)(C)C)C(=O)O)c(-c4cc(F)c5c(c4C)CCCO5)n3n2)cc1` (centres unmarked) [Example 100, 2-tert-Butoxy-2-(2-(4-ethylphenyl)-7-(8-fluoro-5-methylchroman-6-yl)-5-methylpyrazolo[1,5-a]pyrimidin-6-yl)acetic acid, TFA salt]: 0.1 to 1 µM; `Cc1nc2cc(-c3cccc(OCc4ccc(F)cc4)c3)nn2c(-c2cc(F)c3c(c2C)CCCO3)c1C(OC(C)(C)C)C(=O)O` (centres unmarked) [Example 101, 2-tert-Butoxy-2-(7-(8-fluoro-5-methylchroman-6-yl)-2-(3-(4-fluorobenzyloxy)phenyl)-5-methylpyrazolo[1,5-a]pyrimidin-6-yl)acetic acid, TFA salt]: less than 0.1 µM.
Still for that read-out and setting: in the case of `Cc1nc2cc(-c3cccc(OCc4ccccc4Cl)c3)nn2c(-c2cc(F)c3c(c2C)CCCO3)c1C(OC(C)(C)C)C(=O)O` (centres unmarked) [Example 102, 2-tert-Butoxy-2-(2-(3-(2-chlorobenzyloxy)phenyl)-7-(8-fluoro-5-methylchroman-6-yl)-5-methylpyrazolo[1,5-a]pyrimidin-6-yl)acetic acid, TFA salt] it was less than 0.1 µM.
The same measure, in the same setting: next, `COc1ccc(COc2cccc(-c3cc4nc(C)c(C(OC(C)(C)C)C(=O)O)c(-c5cc(F)c6c(c5C)CCCO6)n4n3)c2)cc1` (centres unmarked) [Example 103, 2-tert-Butoxy-2-(7-(8-fluoro-5-methylchroman-6-yl)-2-(3-(4-methoxybenzyloxy)phenyl)-5-methylpyrazolo[1,5-a]pyrimidin-6-yl)acetic acid, TFA salt]: less than 0.1 µM.

The assay is the same for the next values; noted with them: NL43, 120 h, read-out: EC50 μM.
Regarding `Cc1nc2cc(-c3ccccc3)nn2c(-c2ccc(C(C)C)cc2)c1C(OC(C)(C)C)C(=O)O` (centres unmarked) [Example 57], the EC50 came out at 1.7 µM.
As to `CSc1ccc(-c2c(C(OC(C)(C)C)C(=O)O)c(C)nc3cc(-c4ccccc4)nn23)cc1` (centres unmarked) [Example 58], the EC50 came to 3.1 µM.
On the same count and under the same terms, in the case of `Cc1ccc(F)c(-c2c(C(OC(C)(C)C)C(=O)O)c(C)nc3cc(-c4ccccc4)nn23)c1` (centres unmarked) [Example 62] it was 5 µM; in that of `Cc1nc2cc(-c3cccc(OCc4ccccc4)c3)nn2c(-c2cc(F)c3c(c2C)CCCO3)c1C(OC(C)(C)C)C(=O)O` (centres unmarked) [Example 93, 2-(2-(3-(Benzyloxy)phenyl)-7-(8-fluoro-5-methylchroman-6-yl)-5-methylpyrazolo[1,5-a]pyrimidin-6-yl)-2-tert-butoxyacetic acid, TFA salt], 0.1 µM.
`Cc1nc2cc(-c3cccc(Oc4ccccc4)c3)nn2c(-c2cc(F)c3c(c2C)CCCO3)c1C(OC(C)(C)C)C(=O)O` (centres unmarked) [Example 97, 2-tert-Butoxy-2-(7-(8-fluoro-5-methylchroman-6-yl)-5-methyl-2-(3-phenoxyphenyl)pyrazolo[1,5-a]pyrimidin-6-yl)acetic acid, TFA salt]: the EC50 worked out at 0.06 µM.
On the same count and under the same terms, next, `COc1cccc(-c2cc3nc(C)c(C(OC(C)(C)C)C(=O)O)c(-c4cc(F)c5c(c4C)CCCO5)n3n2)c1` (centres unmarked) [Example 99, 2-tert-Butoxy-2-(7-(8-fluoro-5-methylchroman-6-yl)-2-(3-methoxyphenyl)-5-methylpyrazolo[1,5-a]pyrimidin-6-yl)acetic acid]: 0.35 µM.
